One assay deals with DPB1*02:01. Kind of assay: Peptide binding to HLA-DP allele, competition assay. Details: species or system human. The text has this:
(§1) Peptide binding to MHC-II requires anchor residues in certain positions and thus can be predicted using computer algorithms. Affinity can be measured experimentally using a competition assay (1). Both are excellent screening tools. However, affinity must be measured separately for each MHC-II allele. Humans express molecules encoded in four different MHC-II loci, denominated HLA-DRB1, DRB3/4/5, DP and DQ. Allelic variation is large, and most people are heterozygous at each locus, thus expressing up to 8 relevant MHC-II alleles. CD4 T cell responses strictly require that the antigenic peptide binds to the relevant MHC-II.
(§2) To identify peptides that could potentially be used in human patients, 30 peptides were screened for binding to 26 HLA alleles by competition assay.

The target of a further assay is DPB1*04:02. The assay is described as above. Further details: species or system human.
Excerpt: as §1, §2

The target in a further assay is DQB1*06:02. Nature of the assay: Peptide binding to HLA-DQ allele, competition assay. Details: species or system human.
Excerpt: as §1, §2

The target in a further assay is DQB1*05:01. The description is as above. Further details: species or system human.
Excerpt: as §1, §2

In the next assay the target is T1, DPB1*04:01 (Homo sapiens, UniProt P04440).
T1 sequence (P04440 30-258): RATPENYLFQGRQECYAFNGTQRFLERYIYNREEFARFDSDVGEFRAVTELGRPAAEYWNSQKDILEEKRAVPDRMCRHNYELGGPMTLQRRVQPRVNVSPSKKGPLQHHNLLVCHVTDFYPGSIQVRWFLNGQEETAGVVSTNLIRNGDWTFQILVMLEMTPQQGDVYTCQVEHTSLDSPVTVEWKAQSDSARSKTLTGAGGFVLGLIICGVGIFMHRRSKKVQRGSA
T1 sequence (P20036 29-260 partner): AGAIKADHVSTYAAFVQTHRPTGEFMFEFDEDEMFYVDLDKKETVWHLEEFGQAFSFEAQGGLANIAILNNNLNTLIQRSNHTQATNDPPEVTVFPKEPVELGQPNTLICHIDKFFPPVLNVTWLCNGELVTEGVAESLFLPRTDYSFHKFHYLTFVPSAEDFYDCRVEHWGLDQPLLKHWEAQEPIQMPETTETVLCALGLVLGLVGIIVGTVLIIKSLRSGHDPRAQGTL
Nature of the assay: Peptide binding to HLA-DP allele, competition assay.
Excerpt: as §1, §2

The next assay addresses DPB1*14:01. The assay is described as above. Details: species or system human.
Excerpt: as §1, §2

The target in a further assay is DPB1*05:01. The description is as above. Further details: species or system human.
Excerpt: as §1, §2

In the next assay the target is DRB4*01:01 (Homo sapiens, UniProt P01903+P13762, G164S). Kind of assay: Peptide binding to HLA-DR allele, competition assay.
Excerpt: as §1, §2

From patent US12448433B2, “Human ApoB100 epitopes, methods and uses for modulating inflammatory responses, and treating adverse cardiovascular events, disease and atherosclerosis” (LA JOLLA INSTITUTE FOR ALLERGY AND IMMUNOLOGY, priority 2015, dated 2025) come the findings set out here.

SMILES strings stand for the structures. pIC50: −log10 of the molar value.

Consider `CC[C@H](C)[C@H](NC(=O)[C@H](CC(=O)O)NC(=O)[C@H](CC(C)C)NC(=O)[C@H](CC(C)C)NC(=O)[C@H](CCC(=O)O)NC(=O)[C@@H](N)CCC(N)=O)C(=O)N[C@@H](C)C(=O)N[C@@H](CC(N)=O)C(=O)N[C@@H](Cc1ccc(O)cc1)C(=O)N[C@@H](CC(C)C)C(=O)N[C@@H](CCSC)C(=O)N[C@@H](CCC(=O)O)C(=O)N[C@@H](CCC(N)=O)C(=O)N[C@H](C(=O)N[C@@H](CCC(N)=O)C(=O)O)[C@@H](C)CC` [Peptide 3563.0003], for which the pIC50 on DPB1*02:01 is 5.75; on DPB1*04:02 it was 6.74; on DQB1*06:02 it was 5.61; on DQB1*05:01, 8.40; on DPB1*04:01, 5.59.

In the case of `CC[C@H](C)[C@H](NC(=O)[C@H](CC(C)C)NC(=O)[C@H](CC(N)=O)NC(=O)[C@@H](NC(=O)[C@@H](NC(=O)[C@H](Cc1ccccc1)NC(=O)[C@H](Cc1c[nH]cn1)NC(=O)[C@H](CCCCN)NC(=O)[C@@H](NC(=O)[C@@H](N)Cc1c[nH]cn1)C(C)C)C(C)C)[C@@H](C)CC)C(=O)NCC(=O)N[C@@H](CC(=O)O)C(=O)N[C@@H](Cc1ccccc1)C(=O)N[C@@H](CCC(=O)O)C(=O)N[C@H](C(=O)O)C(C)C` [Peptide 3563.0014], the pIC50 was 4.91 on DPB1*14:01; 6.09 at DPB1*05:01; 7.24 at DPB1*02:01; 6.83 at DPB1*04:02; 4.87 on DQB1*06:02; 8.43 on DQB1*05:01. The same molecule had a pIC50 on DPB1*04:01 of 8.15.

With `CC[C@H](C)[C@H](NC(=O)[C@@H](NC(=O)[C@@H](N)CC(C)C)[C@@H](C)CC)C(=O)N[C@@H](CC(N)=O)C(=O)N[C@@H](Cc1c[nH]c2ccccc12)C(=O)N[C@@H](CC(C)C)C(=O)N[C@@H](CCC(N)=O)C(=O)N[C@@H](CCC(=O)O)C(=O)N[C@@H](C)C(=O)N[C@@H](CC(C)C)C(=O)N[C@@H](CO)C(=O)N[C@@H](CO)C(=O)N[C@@H](C)C(=O)N[C@@H](CO)C(=O)N[C@@H](CC(C)C)C(=O)O` [Peptide 3563.0015], the pIC50 on DPB1*14:01 is 5.02; on DPB1*02:01, 4.79; on DPB1*04:02, 5.69; on DQB1*06:02 it was 5.71; on DPB1*04:01, 5.21; on DRB4*01:01, 7.92.

Consider `CC[C@H](C)[C@H](NC(=O)[C@H](CO)NC(=O)[C@H](Cc1ccc(O)cc1)NC(=O)[C@H](CC(C)C)NC(=O)[C@H](CCCCN)NC(=O)CN)C(=O)N[C@@H](CC(C)C)C(=O)N[C@@H](CCCCN)C(=O)N[C@H](C(=O)N[C@@H](CCC(N)=O)C(=O)N[C@@H](CO)C(=O)N1CCC[C@H]1C(=O)N[C@@H](CC(C)C)C(=O)N[C@@H](Cc1ccccc1)C(=O)N[C@H](C(=O)O)[C@@H](C)O)[C@@H](C)CC` [Peptide 3563.0016], for which the pIC50 on DPB1*14:01 was 5.15; at DPB1*05:01 it was 5.62; on DPB1*02:01, 5.04; on DPB1*04:02 it was 6.38; at DQB1*05:01, 5.22; on DPB1*04:01 it was 5.68.

On to `CC[C@H](C)[C@H](NC(=O)[C@H](CC(C)C)NC(=O)[C@@H](N)Cc1ccccc1)C(=O)N[C@@H](Cc1ccc(O)cc1)C(=O)N[C@H](C(=O)N[C@H](C(=O)N[C@@H](CCC(=O)O)C(=O)N[C@@H](CC(C)C)C(=O)N[C@@H](CC(C)C)C(=O)N[C@@H](CCCCN)C(=O)N[C@@H](CCCCN)C(=O)N[C@@H](CC(C)C)C(=O)N[C@@H](CCC(N)=O)C(=O)N[C@@H](CO)C(=O)N[C@H](C(=O)O)[C@@H](C)O)[C@@H](C)O)[C@@H](C)CC` [Peptide 3563.0030], for which the pIC50 at DPB1*05:01 was 7.49; at DPB1*02:01, 7.02; at DPB1*04:02, 8.07; on DQB1*06:02, 5.23; on DQB1*05:01, 5.32; on DPB1*04:01 it was 6.67.
